Holding throughout (assay type): biochemical
Assay [1] addresses human JAK1 (a.a. 837-1142) (Homo sapiens, UniProt P23458). Put plainly: In vitro JAK kinase assay (HTRF, phosphorylation of a biotinylated peptide), JAK1. To be noted: measured at 1 mM ATP. An outline of the steps:
(§1)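 Phosphorylation of a biotinylated peptide by purified His-tagged JAK catalytic domains (insect-cell baculovirus expression) ran 1 hr at room temperature. After stopping with EDTA, Eu-Py20 and SA-APC were bound for 40 minutes and HTRF measured.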
Background: Time-resolved FRET reads energy transfer from a long-lived donor to a nearby acceptor.

The target in assay [2] is human JAK1 (a.a. 837-1142). The description is as above. To be noted: ratio of JAK2 IC50 to JAK1 IC50, measured at 1 mM ATP. Summed up: as §1
For another assay, the target named is Jak2 (a.a. 828-1132) (Homo sapiens (Human), UniProt O60674). Put plainly: In vitro JAK kinase assay (HTRF, phosphorylation of a biotinylated peptide), JAK2. Particulars: measured at 1 mM ATP. Summed up:
as §1

From patent publication US9999619B2, “Piperidin-4-yl azetidine derivatives as JAK1 inhibitors” (Incyte Corporation, priority 2010, dated 2018) come the findings set out here.

The IC50 is the point on the concentration scale where inhibition reaches its midpoint. Read a high IC50 as weaker potency.

Sequence of Jak2 (a.a. 828-1132) (O60674 828-1132): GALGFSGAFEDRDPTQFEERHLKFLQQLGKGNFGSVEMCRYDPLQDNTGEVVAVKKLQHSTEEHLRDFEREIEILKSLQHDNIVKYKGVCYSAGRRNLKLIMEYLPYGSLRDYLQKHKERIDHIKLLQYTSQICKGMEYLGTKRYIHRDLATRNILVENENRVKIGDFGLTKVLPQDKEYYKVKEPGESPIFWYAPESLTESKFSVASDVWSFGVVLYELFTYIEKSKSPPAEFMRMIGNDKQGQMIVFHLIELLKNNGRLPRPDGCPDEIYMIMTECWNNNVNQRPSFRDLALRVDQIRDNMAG

As for `N#CCC1(n2ccc(-c3ncnc4[nH]ccc34)c2)CN(C2CCN(C(=O)c3nc(C(F)(F)F)cs3)CC2)C1` [Example 346, [3-[3-(7H-Pyrrolo[2,3-d]pyrimidin-4-yl)-1H-pyrrol-1-yl]-1-(1-{[4-(trifluoromethyl)-1,3-thiazol-2-yl]carbonyl}piperidin-4-yl)azetidin-3-yl]acetonitrile], the values for the concentration for half-maximal inhibition (IC50) (in assay [1]; at Jak2 (a.a. 828-1132)) were not above 5 nM and 10 to 50 nM, respectively. Also, the “IC50 Ratio JAK2/JAK1” value in assay [2] amounted to 5.9.

Regarding `N#CCC1(n2ccc(-c3ncnc4[nH]ccc34)c2)CN(C2CCN(C(=O)c3cnc(C(F)(F)F)cn3)CC2)C1` [Example 347, [3-[3-(7H-Pyrrolo[2,3-d]pyrimidin-4-yl)-1H-pyrrol-1-yl]-1-(1-{[5-(trifluoromethyl)pyrazin-2-yl]carbonyl}piperidin-4-yl)azetidin-3-yl]acetonitrile], the values for the 50% inhibitory concentration (IC50) (in assay [1]; at Jak2 (a.a. 828-1132)) were 5 to 20 nM and 10 to 50 nM, respectively. Besides, the “IC50 Ratio JAK2/JAK1” value in assay [2] worked out at 2.7.

In the case of `CS(=O)(=O)N1CCC(N2CC(CC#N)(n3ccc(-c4ncnc5[nH]ccc45)c3)C2)CC1` [Example 348, {1-[1-(Methylsulfonyl)piperidin-4-yl]-3-[3-(7H-pyrrolo[2,3-d]pyrimidin-4-yl)-1H-pyrrol-1-yl]azetidin-3-yl}acetonitrile], the IC50 in assay [1] is not above 5 nM; at Jak2 (a.a. 828-1132), 10 to 50 nM. The “IC50 Ratio JAK2/JAK1” value in assay [2] is listed as 3.2.

`N#CCC1(n2cc(-c3ccnc4[nH]ccc34)cn2)CN(C2CCN(C(=O)c3nc(C(F)(F)F)cs3)CC2)C1` [Example 350]: the half-maximal inhibitory concentration (IC50) in assay [1] was 5 to 20 nM; on Jak2 (a.a. 828-1132), more than 100 nM. Also, the “IC50 Ratio JAK2/JAK1” value in assay [2] was found to be 15.0.

In the case of `CS(=O)(=O)N1CCC(N2CC(CC#N)(n3cc(-c4ccnc5[nH]ccc45)cn3)C2)CC1` [Example 351, {1-[1-(Methylsulfonyl)piperidin-4-yl]-3-[4-(1H-pyrrolo[2,3-b]pyridin-4-yl)-1H-pyrazol-1-yl]azetidin-3-yl}acetonitrile], the IC50 was not above 5 nM in assay [1] and 10 to 50 nM on Jak2 (a.a. 828-1132). Besides, in assay [2], the “IC50 Ratio JAK2/JAK1” value is reported as 3.8.

Regarding `N#CCC1(n2cc(-c3c(F)cnc4[nH]ccc34)cn2)CN(C2CCN(C(=O)c3cncc(C(F)(F)F)n3)CC2)C1` [Example 352, [3-[4-(5-Fluoro-1H-pyrrolo[2,3-b]pyridin-4-yl)-1H-pyrazol-1-yl]-1-(1-{[6-(trifluoromethyl)pyrazin-2-yl]carbonyl}piperidin-4-yl)azetidin-3-yl]acetonitrile], the 50% inhibitory concentration (IC50) in assay [1] was not above 5 nM; at Jak2 (a.a. 828-1132) it was 10 to 50 nM. The “IC50 Ratio JAK2/JAK1” value in assay [2] came to 18.8.

Consider `N#CCC1(n2cc(-c3c(F)cnc4[nH]ccc34)cn2)CN(C2CCN(C(=O)c3ccnc(C(F)(F)F)n3)CC2)C1` [Example 353, [3-[4-(5-Fluoro-1H-pyrrolo[2,3-b]pyridin-4-yl)-1H-pyrazol-1-yl]-1-(1-{[2-(trifluoromethyl)pyrimidin-4-yl]carbonyl}piperidin-4-yl)azetidin-3-yl]acetonitrile], for which the half-inhibitory concentration (IC50) in assay [1] lay within 5 to 20 nM; against Jak2 (a.a. 828-1132), 10 to 50 nM. Besides, the “IC50 Ratio JAK2/JAK1” value in assay [2] was determined as 5.0.

`N#CCC1(n2cc(-c3c(F)cnc4[nH]ccc34)cn2)CN(C2CCN(C(=O)c3cnc(C(F)(F)F)cn3)CC2)C1` [Example 354, [3-[4-(5-Fluoro-1H-pyrrolo[2,3-b]pyridin-4-yl)-1H-pyrazol-1-yl]-1-(1-{[5-(trifluoromethyl)pyrazin-2-yl]carbonyl}piperidin-4-yl)azetidin-3-yl]acetonitrile]: the figures for the IC50 (in assay [1]; against Jak2 (a.a. 828-1132)) were 5 to 20 nM and 10 to 50 nM, respectively. In assay [2], the “IC50 Ratio JAK2/JAK1” value is given as 2.1.

Turning to `CS(=O)(=O)N1CCC(N2CC(CC#N)(n3cc(-c4c(F)cnc5[nH]ccc45)cn3)C2)CC1` [Example 355, {3-[4-(5-Fluoro-1H-pyrrolo[2,3-b]pyridin-4-yl)-1H-pyrazol-1-yl]-1-[1-(methylsulfonyl)piperidin-4-yl]azetidin-3-yl}acetonitrile], the IC50 in assay [1] was not above 5 nM; against Jak2 (a.a. 828-1132), not above 10 nM. For the same compound, the “IC50 Ratio JAK2/JAK1” value in assay [2] was 3.1.

For the compound `N#CCC1(n2cc(-c3c(C#N)cnc4[nH]ccc34)cn2)CN(C2CCN(C(=O)c3cc(C(F)(F)F)ncc3F)CC2)C1` [Example 356, 4-[1-(3-(Cyanomethyl)-1-{1-[5-fluoro-2-(trifluoromethyl)isonicotinoyl]piperidin-4-yl}azetidin-3-yl)-1H-pyrazol-4-yl]-1H-pyrrolo[2,3-b]pyridine-5-carbonitrile], the IC50 in assay [1] lay in the range of 5 to 20 nM; against Jak2 (a.a. 828-1132), 50 to 100 nM. The “IC50 Ratio JAK2/JAK1” value in assay [2] was found to be 5.8.

`CS(=O)(=O)N1CCC(N2CC(CC#N)(n3cc(-c4c(C#N)cnc5[nH]ccc45)cn3)C2)CC1` [Example 357, 4-(1-{3-(Cyanomethyl)-1-[1-(methylsulfonyl)piperidin-4-yl]azetidin-3-yl}-1H-pyrazol-4-yl)-1H-pyrrolo[2,3-b]pyridine-5-carbonitrile]: the IC50 was not above 5 nM in assay [1] and 10 to 50 nM against Jak2 (a.a. 828-1132). In addition, the “IC50 Ratio JAK2/JAK1” value in assay [2] was found to be 3.8.

Turning to `N#CCC1(n2cc(-c3ncnc4[nH]ccc34)cn2)CN(C2C3COCC2CN(C(=O)c2ccnc(C(F)(F)F)c2F)C3)C1` (stereo not drawn) [Example 365, {1-{7-[3-Fluoro-2-(trifluoromethyl)isonicotinoyl]-3-oxa-7-azabicyclo[3.3.1]non-9-yl}-3-[4-(7H-pyrrolo[2,3-d]pyrimidin-4-yl)-1H-pyrazol-1-yl]azetidin-3-yl}acetonitrile], the values for the IC50 (in assay [1]; against Jak2 (a.a. 828-1132)) were not above 5 nM and 10 to 50 nM, respectively. Also, the “IC50 Ratio JAK2/JAK1” value in assay [2] amounted to 15.5.

Turning to `CC(C)NC(=O)N1CCC(N2CC(CC#N)(n3cc(-c4ncnc5[nH]ccc45)cn3)C2)CC1` [Example 367, 4-{3-(cyanomethyl)-3-[4-(7H-pyrrolo[2,3-d]pyrimidin-4-yl)-1H-pyrazol-1-yl]azetidin-1-yl}-N-isopropylpiperidine-1-carboxamide], the 50% inhibitory concentration (IC50) in assay [1] was not above 5 nM; against Jak2 (a.a. 828-1132) it was 10 to 50 nM. In addition, in assay [2], the “IC50 Ratio JAK2/JAK1” value stood at 33.8.

For the compound `CN(C)Cc1cc(C(=O)N2CCC(N3CC(CC#N)(n4cc(-c5ncnc6[nH]ccc56)cn4)C3)CC2)c(F)c(C(F)(F)F)n1` [Example 368, {1-{1-[6-[(dimethylamino)methyl]-3-fluoro-2-(trifluoromethyl)isonicotinoyl]piperidin-4-yl}-3-[4-(7H-pyrrolo[2,3-d]pyrimidin-4-yl)-1H-pyrazol-1-yl]azetidin-3-yl}acetonitrile], the IC50 in assay [1] is not above 5 nM; on Jak2 (a.a. 828-1132), 10 to 50 nM. Further, the “IC50 Ratio JAK2/JAK1” value in assay [2] is 54.2.

Take `CN(C)Cc1cc(C#N)cc(C(=O)N2CCC(N3CC(CC#N)(n4cc(-c5ncnc6[nH]ccc56)cn4)C3)CC2)c1` [Example 369, 3-[(4-{3-(cyanomethyl)-3-[4-(7H-pyrrolo[2,3-d]pyrimidin-4-yl)-1H-pyrazol-1-yl]azetidin-1-yl}piperidin-1-yl)carbonyl]-5-[(dimethylamino)methyl]benzonitrile]: the IC50 in assay [1] was not above 5 nM; on Jak2 (a.a. 828-1132), more than 100 nM. Moreover, the “IC50 Ratio JAK2/JAK1” value in assay [2] was 43.8.

`CN(C)Cc1cc(C(=O)N2CCC(N3CC(CC#N)(n4cc(-c5ncnc6[nH]ccc56)cn4)C3)CC2)nc(C(F)(F)F)n1` [Example 370, {1-(1-{[6-[(dimethylamino)methyl]-2-(trifluoromethyl)pyrimidin-4-yl]carbonyl}piperidin-4-yl)-3-[4-(7H-pyrrolo[2,3-d]pyrimidin-4-yl)-1H-pyrazol-1-yl]azetidin-3-yl}acetonitrile]: the half-inhibitory concentration (IC50) in assay [1] was not above 5 nM; on Jak2 (a.a. 828-1132), 50 to 100 nM. Also, the “IC50 Ratio JAK2/JAK1” value in assay [2] was 55.
